Laboratory results from patent publication US20040087798A1, “Novel amide compounds” (priority 2000, published 2004).

Experiments:
[1] = target: T1, 5-HT2c binding site (Rattus norvegicus, UniProt P08909); test: [3H]-mesulergine binding; conditions: test drug 10^−6M; displacement of [3H]-mesulergine (1 nM) in rat prefrontal cortex membranes; 30 nM spiperone present
T1 construct: ability to displace [^3H]-mesulergine in the rat prefrontal cortex; from tissue; host or cells: rat prefrontal cortex membrane suspension
T1 sequence (P08909 33-460): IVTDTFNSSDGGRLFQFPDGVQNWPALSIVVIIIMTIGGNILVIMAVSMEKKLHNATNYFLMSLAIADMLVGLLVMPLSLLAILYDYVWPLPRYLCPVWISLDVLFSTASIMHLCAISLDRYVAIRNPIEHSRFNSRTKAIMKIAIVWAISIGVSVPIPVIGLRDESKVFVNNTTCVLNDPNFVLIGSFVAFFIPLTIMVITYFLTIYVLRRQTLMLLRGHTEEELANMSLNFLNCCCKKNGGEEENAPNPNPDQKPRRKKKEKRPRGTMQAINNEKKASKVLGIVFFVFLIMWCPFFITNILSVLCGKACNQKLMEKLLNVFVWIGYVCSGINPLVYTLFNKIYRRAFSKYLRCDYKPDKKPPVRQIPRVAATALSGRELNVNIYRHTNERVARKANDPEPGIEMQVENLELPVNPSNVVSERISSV
Description: [^3H]-mesulergine Binding
The affinity of test drugs for the 5-HT2c binding site can be determined by assessing their ability to displace [^3H]-mesulergine in the rat prefrontal cortex. The method employed was similar to that of Pazos et al, 1984.
The membrane suspension (500 μl) was incubated with [^3H]-mesulergine (1 nM) in Tris hydrochloric acid buffer solution (pH 7.4) containing calcium chloride 4 mM and ascorbic acid 0.1% at 37° C. for 30 minutes. Non-specific binding was measured in the presence of mianserin (1 μM). 30 nM spiperone was used to prevent binding to 5-HT2A sites. Test drugs (10^−6M) were added in a volume of 100 μl. The total assay volume was 1000 μl. Incubation was stopped by rapid filtration using a Brandel cell harvester and radioactivity measured by scintillation counting.

| inhibition at 1 µM [1] [%] | melting point [°C] | SMILES |
| --- | --- | --- |
| 82 | 130 to 133 | O=C(C/C=C/c1ccccc1)Nc1cccc(-n2ccnc2)c1 [Compound (a), (3E)-N-[3-(imidazol-1-yl)phenyl]-4-phenyl-3-butenamide] |
| – | 220 to 222 | Cc1ccc(NC(=N)c2ccccc2)cc1NC(=O)/C=C/c1ccccc1C(F)(F)F [Example 139, (2E)-N-[5 (iminobenzylamino)-2-methylphenyl]-3-(2-trifluoromethylphenyl)-2-propenamide] |
| – | 208 to 210 | COc1ccc(NC(=N)c2ccccc2)cc1NC(=O)/C=C/c1ccccc1C(F)(F)F [Example 140, (2E)-N-[5-(iminobenzylamino)-2-methoxyphenyl]-3-(2-trifluoromethylphenyl)-2-propenamide] |
| – | 198 to 199 | N=C(Nc1ccc(Cl)c(NC(=O)/C=C/c2ccccc2C(F)(F)F)c1)c1ccccc1 [Example 141, (2E)-N-[2-chloro-5-(iminobenzylamino)phenyl]-3-(2-trifluoromethylphenyl)-2-propenamide] |
| – | 99 to 101 | N=C(Nc1cc(Cl)cc(NC(=O)/C=C/c2ccccc2Br)c1)c1ccccc1 [Example 142, (2E)-N-[3-chloro-5-(iminobenzylamino)phenyl]-3-(2-bromophenyl)-2-propenamide] |
| – | 112 to 116 | Cc1ccc(NC(=O)/C=C/c2ccccc2C(F)(F)F)cc1NC(=N)c1ccccc1 [Example 143, (2E)-N-[3-(iminobenzylamino)-4-methylphenyl]-3-(2-trifluoromethylphenyl)-2-propenamide] |
| – | 213 to 214 | COc1ccc(NC(=O)/C=C/c2ccccc2C(F)(F)F)cc1NC(=N)c1ccccc1 [Example 144, (2E)-N-[3-(iminobenzylamino)-4-methoxyphenyl]-3-(2-trifluoromethylphenyl)-2-propenamide] |
| – | 188 to 189 | N=C(Nc1cc(NC(=O)/C=C/c2ccccc2C(F)(F)F)ccc1Cl)c1ccccc1 [Example 145, (2E)-N-[4-chloro-3-(iminobenzylamino)phenyl]-3-(2-trifluoromethylphenyl)-2-propenamide] |
| – | 150 to 155 | CS(=O)(=O)Nc1cc(NC(=N)c2ccccc2)cc(NC(=O)/C=C/c2ccccc2C(F)(F)F)c1 [Example 146, (2E)-N-[3 (iminobenzylamino)-5-(methylsulfonylamino)phenyl]-3-(2-trifluoromethylphenyl)-2-propenamide] |
| – | 158 to 160 | CS(=O)(=O)Nc1ccc(C(=N)Nc2cc(Cl)cc(NC(=O)/C=C/c3ccccc3Cl)c2)cc1 [Example 147, (2E)-N-[3-chloro-5-[imino(4-methylsulfonylaminobenzyl)amino]phenyl]-3-(2-chlorophenyl)-2-propenamide] |
| – | 209 to 210 | N=C(Nc1cc(Cl)cc(NC(=O)/C=C/c2ccccc2C(F)(F)F)c1)c1ccccc1F [Example 148, (2E)-N-[3-chloro-5-[imino(2-fluorobenzyl)amino]phenyl]-3-(2-trifluoromethylphenyl)-2-propenamide] |
| – | 180 to 185 | CC(=O)Nc1ccc(C(=N)Nc2cc(NC(=O)/C=C/c3ccccc3C(F)(F)F)c(F)cc2F)cc1 [Example 152, (2E)-N-[2,4-difluoro-5-[imino(4-acetylaminobenzyl)amino]phenyl]-3-(2-trifluoromethylphenyl)-2-propenamide] |
| – | 213 to 214 | N=C(Nc1cc(Cl)c(Cl)c(NC(=O)/C=C/c2ccccc2C(F)(F)F)c1)c1ccccc1 [Example 154, (2E)-N-[2,3-dichloro-5-(iminobenzylamino)phenyl]-3-(2-trifluoromethylphenyl)-2-propenamide] |
| – | 133 to 135 | O=C(C=Cc1ccccc1Cl)Nc1cc(Cl)cc(Nc2noc3ccccc23)c1 [Example 186, N-[3-(1,2-benzisoxazol-3-ylamino)-5-chlorophenyl]-2-chlorocinnamamide] |
| – | 184 to 187 | N=C(Nc1cc(Cl)cc(NC(=O)/C=C/c2c[nH]c3ccccc23)c1)c1ccccc1 [Example 205, (2E)-N-[3-chloro-5-[[imino(phenyl)methyl]amino]phenyl]-3-(1H-indole-3-yl)-2-propenamide] |
